Bridge positions count the residues as written; N and C are the ends. Square brackets hold non-standard residues; d marks the D form. Ends that are not written are not given here. Peptide text beside a SMILES is read from it. Nle = CCCC[C@H](N)C(=O)O
How the values were obtained:
[1] = Relief of inflammation on administration; type: in vivo; details: administration of the peptide
[2] = system: ACTH and β-END-LI secretion; test: Secretion of ACTH and β-END-LI on administration of the peptide (in vivo testing)
Method: (§1) The cyclic CRF agonists are examined for their effects on the secretion of ACTH and β-endorphin in vitro and also in vivo. […] In vivo testing is carried out using the general procedure set forth in C. Rivier et al., Science, 218, 377 (1982).

[3] = Lowering of blood pressure on peripheral or iv administration; type: in vivo; details: for lowering of blood pressure on iv injection, in words: iv injection / administered intravenously; for lowering of blood pressure when administered peripherally, in words: peripheral administration
[4] = system: rat anterior pituitary cells; test: In vitro stimulation of ACTH and β-endorphin secretion by cultured rat pituitary cells, potency compared with oCRF (Standard) or r/hCRF; type: cell-based; details: for in vitro biopotency, comparison in words: compared with the Standard or with a named analog; for in vitro potency to stimulate secretion of ACTH relative to the Standard: relative to the laboratory Standard (synthetic oCRF), cultured rat pituitary cells, limits in parentheses; for stimulation of secretion of ACTH and β-END-LI (testing by the general procedure), in words: general procedure of Example 1
Method: as §1

Molecule	stimulation of secretion of ACTH and β-END-LI on administration of the peptide, in words [2]	lowering of blood pressure on iv injection, in words [3]	further results
CCCC[C@H](NC(=O)[C@H](CCC(=O)O)NC(=O)[C@@H](NC(=O)[C@H](CCCC)NC(=O)[C@H](CC(N)=O)NC(=O)[C@H](CCCNC(=N)N)NC(=O)[C@H](CC(C)C)NC(=O)[C@H](CC(C)C)NC(=O)[C@H](Cc1c[nH]cn1)NC(=O)[C@@H](Cc1ccccc1)NC(=O)[C@@H](NC(=O)[C@H](CC(C)C)NC(=O)[C@H](CC(=O)O)NC(=O)[C@@H](NC(=O)[C@H](CO)NC(=O)[C@@H](NC(=O)[C@H]1CCCN1C(=O)[C@@H]1CCCN1C(C)=O)[C@@H](C)CC)[C@@H](C)CC)[C@@H](C)O)[C@@H](C)CC)C(=O)N[C@@H](C)C(=O)N[C@@H](CCCNC(=N)N)C(=O)N[C@@H](CC(N)=O)C(=O)N[C@@H](CCC(=O)O)C(=O)N[C@@H](CC(N)=O)C(=O)N[C@@H](CCC(N)=O)C(=O)N[C@@H](CCCNC(=N)N)C(=O)N[C@@H](CCC(=O)O)C(=O)N[C@H]1CCC(=O)NCCCC[C@@H](C(=O)N[C@@H](CC(N)=O)C(=O)N[C@@H](CCCNC(=N)N)C(=O)N[C@@H](CCCCN)C(=O)N[C@@H](Cc2ccc(O)cc2)C(=O)N[C@@H](CC(C)C)C(=O)N[C@@H](CC(=O)O)C(=O)N[C@@H](CCC(=O)O)C(=O)N[C@H](C(N)=O)C(C)C)NC(=O)[C@@H](Cc2c[nH]cn2)NC(=O)[C@H](C)NC1=O [Example 8 A, (cyclo 30-33)[Ac-Pro^4, D-Pro^5, D-Phe^12, Nle^18,21, Glu^30, D-His^32, Lys^33]-Carp Urotensin I(4-41)] (Ac-P[dP]ISIDLT[dF]HLLRN[Nle]IE[Nle]ARNENQREEA[dH]KNRKYLDEV-NH2; lactam 27-30)			relief of inflammation, in words [1]: relieves inflammation
(cyclo 30-33)[Ac-Pro^4, D-Phe^12, Nle^21,38, Glu^30, D-His^32, Lys^33, CML^37 ]-r/hCRF(4-41) [Example 9 D]	stimulates the secretion of ACTH and β-END-LI	lowers blood pressure	
(cyclo 30-33)[Ac-Ser^7, D-Phe^12, CML^18,27, Nle^21,38, Glu^30, Lys^33 ]-r/hCRF(7-41) [Example 20 C]	stimulates the secretion of ACTH and β-END-LI	lowers blood pressure	
(cyclo 30-33)[Ac-D/L-MeAgl^7, D-Phe^12, Nle^21,38, Glu^30, Lys^33 ]-r/hCRF(7-41) [Example 19 B]	stimulate the secretion of ACTH and β-END-LI		in vitro biopotency, comparison in words [4]: less potent than the Standard
(cyclo 30-33)[Ac-Pro^4, D-Phe^12, CML^17, Nle^21,38, Glu^30, D-His^32, Lys^33 ]-r/hCRF (4-41) [Example 9 E]	stimulates the secretion of ACTH and β-END-LI	lowers blood pressure	
(cyclo 30-33)[Ac-Pro^4, D-Phe^12, CML^15, Nle^21,38, Glu^30, D-His^32, Lys^33 ]-r/hCRF(4-41) [Example 9]	stimulates the secretion of ACTH and β-END-LI	lowers blood pressure	
(cyclo 30-33)[Ac-D/L-Agl^7, D-Phe^12, Nle^21,38, Glu^30, Lys^33 ]-r/hCRF(7-41) [Example 19]	stimulates the secretion of ACTH and β-END-LI		
(cyclo 30-33)[Ac-Pro^4,D-Phe^12, Nle^21,38, Glu^30, D-Amp^32, Lys^33 ]-r/hCRF(4-41) [Example 6 D]	stimulates the secretion of ACTH and β-END-LI	lowers blood pressure	
(cyclo 30-33)[Ac-MeAgl(For)^7, D-Phe^12, Nle^21,38, Glu^30, Lys^33 ]-r/hCRF(7-41) [Example 19 E]	stimulates the secretion of ACTH and β-END-LI		
(cyclo 30-33)[Ac-D/L-Agl(Me,For)^7, D-Phe^12, Nle^21,38, Glu^30, Lys^33 ]-r/hCRF(7-41) [Example 19 D]	stimulates the secretion of ACTH and β-END-LI		in vitro biopotency, comparison in words [4]: less potent than the Standard
(cyclo 30-33)[Ac-Pro^4, D-Pro^5, D-Phe^12, Nle^21,38, CML^27, Glu^30, D-His^32, Lys^33 ]-r/hCRF(4-41) [Example 9 C D-Pro^5 analog]	stimulates the secretion of ACTH and β-END-LI		in vitro potency to stimulate secretion of ACTH relative to the Standard [4]: about 7 times
(cyclo 30-33)[Ac-Pro^4, D-Phe^12, CML^19, Nle^21,38, Glu^30, D-His^32, Lys^33 ]-r/hCRF (4-41) [Example 9 B]	stimulates the secretion of ACTH and β-END-LI	lowers blood pressure	
(cyclo 30-33)[Ac-Pro^4, D-Phe^12, Nle^21,38, CML^27, Glu^30, D-His^32, Lys^33 ]-r/hCRF(4-41) [Example 9 C]	stimulates the secretion of ACTH and β-END-LI	lowers blood pressure	
CCCC[C@H](NC(=O)[C@H](CCCCN)NC(=O)[C@H](C)NC(=O)[C@H](CCCNC(=N)N)NC(=O)[C@H](Cc1c[nH]cn1)NC(=O)[C@@H](NC(=O)[C@H](CCCC)NC(=O)[C@H](CC(N)=O)NC(=O)[C@H](CCCNC(=N)N)NC(=O)[C@H](CC(C)C)NC(=O)[C@H](CCCC)NC(=O)[C@H](Cc1c[nH]cn1)NC(=O)[C@@H](Cc1ccccc1)NC(=O)[C@@H](NC(=O)[C@H](CC(C)C)NC(=O)[C@H](CC(=O)O)NC(=O)[C@@H](NC(=O)[C@H](CO)NC(C)=O)[C@@H](C)CC)[C@@H](C)O)[C@@H](C)CC)C(=O)N[C@@H](CCC(=O)O)C(=O)NCC(=O)N[C@@H](CCC(=O)O)C(=O)N[C@@H](CCCNC(=N)N)C(=O)N[C@@H](CCC(=O)O)C(=O)N[C@H]1CCC(=O)NCCCC[C@@H](C(=O)N[C@@H](CC(N)=O)C(=O)N[C@@H](CCCNC(=N)N)C(=O)N[C@@H](CC(N)=O)C(=O)N[C@@H](CC(C)C)C(=O)N[C@@H](CC(C)C)C(=O)N[C@@H](CC(=O)O)C(=O)N[C@@H](CCC(=O)O)C(=O)N[C@H](C(N)=O)C(C)C)NC(=O)[C@@H](CC(C)C)NC(=O)[C@H](C)NC1=O [Example 16 E, (cyclo 30-33)[Ac-Ser^7, D-Phe^12, Nle^14,18,24, Glu^30, D-Leu^32, Lys^33]-maggy urotensin(7-41)] (Ac-SIDLT[dF]H[Nle]LRN[Nle]IHRAK[Nle]EGEREEA[dL]KNRNLLDEV-NH2; lactam 24-27)			stimulation of secretion of ACTH and β-END-LI (testing by the general procedure), in words [4]: stimulate the secretion of ACTH and β-END-LI; lowering of blood pressure when administered peripherally, in words [3]: very significant lowering of blood pressure
(cyclo 30-33)[Ac-Ser(OMe)^7, D-Phe^12, Nle^21,38, Glu^30, Lys^33 ]-r/hCRF(7-41) [Example 19 I]	stimulates the secretion of ACTH and β-END-LI		
SEEPP[Nle]SIDLT[dF]H[Nle]LRN[Nle]IHRAK[Nle]EGEREEA[dL]KNRNLLDEV-NH2 (lactam 30-33) [Example 3 E, (cyclo 30-33)[Nle^6,14,18,24, D-Phe^12, Glu^30, D-Leu^32, Lys^33]-maggy urotensin]			stimulation of secretion of ACTH and β-END-LI (testing by the general procedure), in words [4]: stimulates the secretion of ACTH and β-END-LI; lowering of blood pressure when administered peripherally, in words [3]: very significant lowering of blood pressure
(cyclo 30-33)[Ac-Agl(Me,Ac)^7, D-Phe^12, Nle^21,38, Glu^30, Lys^33 ]-r/hCRF(7-41) [Example 19 G]	stimulates the secretion of ACTH and β-END-LI		in vitro potency to stimulate secretion of ACTH relative to the Standard [4]: about 3.4 times
(cyclo 30-33)[Ac-Pro^4, D-Phe^12, CML^14, Nle^21,38, Glu^30, D-His^32, Lys^33 ]-r/hCRF(4-41) [Example 9 A]	stimulates the secretion of ACTH and β-END-LI	lowers blood pressure	
CCCC[C@H](NC(=O)[C@H](CCCCN)NC(=O)[C@H](C)NC(=O)[C@H](CCCNC(=N)N)NC(=O)[C@H](Cc1c[nH]cn1)NC(=O)[C@@H](NC(=O)[C@H](CCCC)NC(=O)[C@H](CC(N)=O)NC(=O)[C@H](CCCNC(=N)N)NC(=O)[C@H](CC(C)C)NC(=O)[C@H](CCCC)NC(=O)[C@H](Cc1c[nH]cn1)NC(=O)[C@@H](Cc1ccccc1)NC(=O)[C@@H](NC(=O)[C@H](CC(C)C)NC(=O)[C@H](CC(=O)O)NC(=O)[C@@H](NC(=O)[C@H](CO)NC(C)=O)[C@@H](C)CC)[C@@H](C)O)[C@@H](C)CC)C(=O)N[C@@H](CCC(=O)O)C(=O)NCC(=O)N[C@@H](CCC(=O)O)C(=O)N[C@@H](CCCNC(=N)N)C(=O)N[C@@H](CCC(=O)O)C(=O)N[C@H]1CCC(=O)NCCCC[C@@H](C(=O)N[C@@H](CC(N)=O)C(=O)N[C@@H](CCCNC(=N)N)C(=O)N[C@@H](CC(N)=O)C(=O)N[C@@H](CC(C)C)C(=O)N[C@@H](CCCC)C(=O)N[C@@H](CC(=O)O)C(=O)N[C@@H](CCC(=O)O)C(=O)N[C@H](C(N)=O)C(C)C)NC(=O)[C@@H](CC(C)C)NC(=O)[C@H](C)NC1=O [Example 16 G, (cyclo 30-33)[Ac-Ser^7, D-Phe^12, Nle^14,18,24,38, Glu^30, D-Leu^32, Lys^33]-sole urotensin(7-41)] (Ac-SIDLT[dF]H[Nle]LRN[Nle]IHRAK[Nle]EGEREEA[dL]KNRNL[Nle]DEV-NH2; lactam 24-27)			stimulation of secretion of ACTH and β-END-LI (testing by the general procedure), in words [4]: stimulate the secretion of ACTH and β-END-LI; lowering of blood pressure when administered peripherally, in words [3]: very significant lowering of blood pressure

Source: patent publication US5824771A, “Cyclic CRF agonists” (The Salk Institute for Biological Studies, priority 1997, dated 1998)
